Source: patent US20090069551A1, “Flavorant Compounds” (priority 2006, published 2009)

What was measured:
[1] = Sensorial taste evaluation: taste thresholds by modified duo test with a sensory panel; type: in vivo; conditions: for taste threshold: modified duo test, sample versus tap water; for threshold concentration, times lower than the threshold concentration of catechin: relative to catechin
Source text: Sensorial taste evaluation of (E)-6-(3-hydroxyphenyl)-(4-O-β-D-glucopyranoside)hex-5-en-2-one and (3E,5E)-6-[3-Hydroxy-4-O-β-D-glucopyranoside-phenyl]-hexa-3 ,5-dien-2-one
For evaluation of taste thresholds of the isolated substances, a modified duo test is used. […] As astringent substances can remain longer on the tongue or possibly can be fortified by addition of tap water, the assessed dilutions (tap water and assay) were given on two different regions of the tongue to compare the taste impressions. The panelists had to determine the dilution at which a difference between sample and tap water could be found.

[2] = Isoastringency: isointensity of astringent perception with a 700 μM aqueous catechin solution; type: in vivo; conditions: versus 700 μM aqueous catechin solution (pH 4.5)

CC(=O)CC/C=C/c1ccc(O[C@@H]2OC(CO)[C@@H](O)C(O)C2O)c(O)c1 (stereo partly drawn) [(E)-6-(3-hydroxyphenyl)-(4-O-β-D-glucopyranoside)hex-5-en-2-one]
taste threshold [1]: 4.3 µmol/L | threshold concentration, times lower than the threshold concentration of catechin [1]: about 100 times | isoastringency: concentration needed to reach isointensity of astringent perception with catechin solution [2]: 120 µmol/L

CC(=O)/C=C/C=C/c1ccc(O[C@@H]2OC(CO)[C@@H](O)C(O)C2O)c(O)c1 (stereo partly drawn) [(3E,5E)-6-[3-Hydroxy-4-O-β-D-glucopyranoside-phenyl]-hexa-3,5-dien-2-one]
taste threshold [1]: 4.0 µmol/L | threshold concentration, times lower than the threshold concentration of catechin [1]: about 100 times | isoastringency: concentration needed to reach isointensity of astringent perception with catechin solution [2]: 200 µmol/L
